US8377967B2, “Piperidine derivative” (Nippon Zoki Pharmaceutical Co., Ltd., priority 2008, dated 2013)

Legend:
[1] = system: histamine-induced vascular hyperpermeability reaction; experiment: Rat histamine-induced vascular hyperpermeability reaction (in vivo antihistamine action); settings: SD male rat, oral administration 1 hour before intracutaneous histamine, leaked Evans Blue pigment
Procedure: An SD male rat (SPF) of 180 g in weight was previously fed for one week or more by allowing the rat to take a solid feed and tap water ad libitum, under the environment setting of a temperature of 22° C., humidity of 55% and an artificial illumination of 12 hours a day (light phase 8 am to 8 pm), and the rat was fasted overnight to be used for the experiment. Histamine•dihydrochloride (hereinafter referred to as histamine) and Evans Blue were used by dissolving each in physiological saline upon use. A substance to be tested was dissolved in water for injection or suspended in 0.5% carboxymethyl cellulose sodium, and the rat was orally administered with the solution or suspension (dose volume: 5 mL/kg body weight). After 1 hour from the administration, the physiological saline and the histamine solution were each intracutaneously injected to two locations (20 μg/0.05 ml/location) each on a back part of the rat of which hair was sheared with an electric clipper while anesthetizing with an ether. A 0.5% Evans Blue-containing physiological saline was injected intravenously to the tail of the rat (1 mL/200 g body weight) immediately before the intracutaneous injection of the histamine.
After 30 minutes, the animal was decapitated, and allowed to bleed lethally, and the skin was removed to measure an amount of leaked pigment in the blue-stained portion. The measurement of the amount of leaked pigment was carried out as follows. Skins of the pigment leaking site were cut out at two locations, 1 mL of a 2 mol/L aqueous potassium hydroxide solution was added thereto in a test tube, and the test tube was allowed to stand overnight at 37° C. to dissolve. Thereafter, 6 mL of a 1:3 mixed solution of 0.67 mol/L phosphoric acid and acetone was added to the solution, and the mixture was vigorously shaken for 10 minutes. Thereafter, the mixture was filtered, and the absorbance of the filtrate at 620 nm was measured. The absorbance obtained from the two locations of the sites injected with physiological saline, as blank value, was used for a compensation. The amount of leaked pigment was calculated from the calibration curve of Evans Blue at 620 nm.

[2] = target: human histamine H1 receptor (Homo sapiens, UniProt P35367); experiment: In vitro human histamine H1 receptor binding experiment ([3H]pyrilamine); settings: HEK293A cells stably expressing human histamine H1 receptor, [3H]pyrilamine 3 nmol/L, room temperature 60 minutes
human histamine H1 receptor, sequence (P35367 whole entry): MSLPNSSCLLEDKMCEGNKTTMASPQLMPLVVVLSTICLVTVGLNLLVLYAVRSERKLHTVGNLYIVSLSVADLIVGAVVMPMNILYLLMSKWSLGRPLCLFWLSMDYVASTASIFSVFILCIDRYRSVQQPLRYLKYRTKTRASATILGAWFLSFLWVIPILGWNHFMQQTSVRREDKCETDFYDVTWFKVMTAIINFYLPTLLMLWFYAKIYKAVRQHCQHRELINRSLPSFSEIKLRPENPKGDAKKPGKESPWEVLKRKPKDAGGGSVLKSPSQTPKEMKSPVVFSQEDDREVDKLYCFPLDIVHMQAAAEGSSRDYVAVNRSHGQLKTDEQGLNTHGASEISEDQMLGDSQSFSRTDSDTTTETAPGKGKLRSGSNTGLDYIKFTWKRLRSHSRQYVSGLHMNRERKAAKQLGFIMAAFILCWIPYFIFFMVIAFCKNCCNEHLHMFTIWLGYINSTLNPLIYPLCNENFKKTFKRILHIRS
Procedure, shortened: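 HEK293A cells stably expressing human H1 receptor (3×10^5 cells/well) incubated 60 min at room temperature with test substance and 3 nmol/L [3H]pyrilamine in 50 mmol/L Tris-HCl pH 7.5, 0.1% BSA. Filtration and scintillation counting; nonspecific binding with 30 μmol/L pyrilamine.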

cerebral H1 receptor = target: T1, cerebral H1 receptor (Mus musculus, UniProt P70174); experiment: Murine cerebral H1 receptor occupying content (ex vivo); type: in vivo; settings: for ED50: ICR male mouse, oral administration, brain excised after 1 hour, 3H-pyrilamine binding in brain homogenate, larger = lower brain transfer, read-out: ID50 (the source's name); for ID50 (mg/kg)/ ED50 (mg/kg): ID50 of cerebral receptor binding test (Table 20) divided by ED50 of vascular hyperpermeability test (Table 19)
T1 construct: the entire brain, except for cerebellum and medulla oblongatae, was rapidly excised; from tissue; host or cells: brain homogenate (without cerebellum and medulla oblongata) of orally dosed ICR male mice
T1 sequence (P70174 whole entry): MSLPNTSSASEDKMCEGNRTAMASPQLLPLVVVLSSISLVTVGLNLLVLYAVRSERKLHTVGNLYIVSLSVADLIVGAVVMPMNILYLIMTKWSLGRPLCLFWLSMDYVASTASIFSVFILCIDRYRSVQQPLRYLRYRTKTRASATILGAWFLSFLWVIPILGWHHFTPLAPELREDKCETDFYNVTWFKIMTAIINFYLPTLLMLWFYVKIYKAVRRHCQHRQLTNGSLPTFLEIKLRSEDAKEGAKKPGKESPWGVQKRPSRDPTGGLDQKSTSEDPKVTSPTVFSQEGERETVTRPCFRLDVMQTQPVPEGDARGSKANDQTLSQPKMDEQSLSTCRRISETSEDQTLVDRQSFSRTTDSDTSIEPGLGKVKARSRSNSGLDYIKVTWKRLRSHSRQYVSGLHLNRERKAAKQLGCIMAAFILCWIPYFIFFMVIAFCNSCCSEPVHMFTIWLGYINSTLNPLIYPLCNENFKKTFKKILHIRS
Procedure: A 6-week-old ICR male mouse was previously fed for one week or more by allowing the mouse to take a solid feed and tap water ad libitum, under the environment setting of a temperature of 22° C., humidity of 55% and an artificial illumination of 12 hours a day, and the mouse was fasted overnight to be used for the experiment. A substance to be tested was dissolved with water for injection or suspended in 0.5% carboxymethyl cellulose solution, and the solution or suspension was orally administered to the mouse (dose volume: 0.1 mL/10 g body weight). After 1 hour from the oral administration, the mouse was decapitated, and the entire brain, except for cerebellum and medulla oblongatae, was rapidly excised. The excised brain tissue was homogenized with Polytron (manufactured by Kinematica) in an ice-cooled 50 mmol/L phosphate buffered saline (pH 7.4, 100 mg/1.9 mL).
To a test tube for reaction (TPX-Tube) were added 180 μL of the brain homogenate, and 10 μL of ^3H-pyrilamine solution (final concentration: 2 nmol/L) and 10 μL of a non-labeled pyrilamine solution (final concentration: 200 μmol/L) or a 50 mmol/L phosphate buffered saline, and the mixture was incubated at room temperature for 45 minutes, and 2.0 mL of an ice-cooled, 50 mmol/L phosphate buffered saline was then added thereto to stop the reaction. The reaction mixture was filtered with a GF/B filter (manufactured by […]), and the […] was placed in a vial and dried overnight at 60 degrees. After drying, 10 mL of a scintillator (AL-1, toluene-based, manufactured by DOJINDO LABORATORIES) was added to the product, and the disintegration per minute (dpm) was measured with a liquid scintillation counter (manufactured by Packard, U.S.A., TRI-CARB 2700TR) (5 minutes/vial).

Compound | ED50 [1] | IC50 [2] | ED50 (cerebral H1 receptor) | ID50 (mg/kg)/ ED50 (mg/kg) (cerebral H1 receptor)
CN1CCC(=C2c3cc(CCCC(=O)O)ccc3OCc3ccsc32)CC1 [Compound 124, 4-[4-(1-Methylpiperidin-4-ylidene)-4,10-dihydro-9-oxa-3-thiabenzo[f]azulen-6-yl]butyric acid] | 0.009 mg/kg | 46.7 nM | 3.2 mg/kg | 355.6
CCN1CCC(=C2c3cc(CC(=O)OC)ccc3OCc3ccsc32)CC1.Cl [Compound 127, Methyl[4-(1-ethylpiperidin-4-ylidene)-4,10-dihydro-9-oxa-3-thiabenzo[f]azulen-6-yl]acetate hydrochloride] | ~0.1 mg/kg | 8.2 nM | 9.84 mg/kg | 98.4
CCCN1CCC(=C2c3cc(CC(=O)OC)ccc3OCc3ccsc32)CC1.Cl [Compound 129, Methyl[4-(1-propylpiperidin-4-ylidene)-4,10-dihydro-9-oxa-3-thiabenzo[f]azulen-6-yl]acetate hydrochloride] | 0.088 mg/kg | 22.7 nM | 40.5 mg/kg | 460.2
CCCN1CCC(=C2c3cc(CC(=O)O)ccc3OCc3ccsc32)CC1 [Compound 130, [4-(1-Propylpiperidin-4-ylidene)-4,10-dihydro-9-oxa-3-thiabenzo[f]azulen-6-yl]acetic acid] | 0.044 mg/kg | 78.4 nM | 8 mg/kg | 181.8
COC(=O)Cc1ccc2c(c1)C(=C1CCN(C(C)C)CC1)c1sccc1CO2.Cl [Compound 131, Methyl[4-(1-isopropylpiperidin-4-ylidene)-4,10-dihydro-9-oxa-3-thiabenzo[f]azulen-6-yl]acetate hydrochloride] | ~0.1 mg/kg | 32.3 nM | 9.2 mg/kg | 92.0
COC(=O)Cc1ccc2c(c1)C(=C1CCN(CCCO)CC1)c1sccc1CO2.Cl [Compound 138, Methyl {4-[1-(3-hydroxypropyl)piperidin-4-ylidene]-4,10-dihydro-9-oxa-3-thiabenzo[f]azulen-6-yl}acetate hydrochloride] | 0.47 mg/kg | 26 nM | 65.4 mg/kg | 139.1
CCOC(=O)Cc1ccc2c(c1)C(=C1CCN(C)CC1)c1sccc1CO2.Cl [Compound 140, Ethyl[4-(1-methylpiperidin-4-ylidene)-4,10-dihydro-9-oxa-3-thiabenzo[f]azulen-6-yl]acetate hydrochloride] | ~0.01 mg/kg | 10.1 nM | 3.5 mg/kg | 350.0
CCN1CCC(=C2c3cc(CCCC(=O)O)ccc3OCc3ccsc32)CC1 [Compound 142, 4-[4-(1-Ethylpiperidin-4-ylidene)-4,10-dihydro-9-oxa-3-thiabenzo[f]azulen-6-yl]butyric acid] | ~0.3 mg/kg | 90.9 nM | 11.9 mg/kg | 39.7
CCOC(=O)C=Cc1cc2c(s1)CCc1ccccc1C2=C1CCNCC1.Cl [Compound 145, Ethyl 3-(4-piperidin-4-ylidene-9,10-dihydro-4H-1-thiabenzo[f]azulen-2-yl)acrylate hydrochloride] | 0.29 mg/kg | 68.6 nM | > 200 mg/kg | >689.7
CN1CCC(=C2c3cc(CC(=O)O)ccc3CCc3sccc32)CC1 [Compound 151, [4-(1-Methylpiperidin-4-ylidene)-9,10-dihydro-4H-1-thiabenzo[f]azulen-6-yl]acetic acid] | < 0.1 mg/kg | 93.6 nM | 6.36 mg/kg | >63.6
COC(=O)COc1ccc2c(c1)C(=C1CCN(C)CC1)c1sccc1CO2.Cl [Compound 165, Methyl[4-(1-methylpiperidin-4-ylidene)-4,10-dihydro-9-oxa-3-thiabenzo[f]azulen-6-yloxy]acetate hydrochloride] | 0.107 mg/kg | 11.8 nM | 23 mg/kg | 215.0
COC(=O)Cc1ccc2c(c1)C(=C1CCN(CCCC(C)=O)CC1)c1sccc1CO2.Cl [Compound 169, Methyl {4-[1-(4-oxopentyl)piperidin-4-ylidene]-4,10-dihydro-9-oxa-3-thiabenzo[f]azulen-6-yl}acetate hydrochloride] | 0.241 mg/kg | 8.32 nM | 12.5 mg/kg | 51.9
COC(=O)CSc1ccc2c(c1)C(=C1CCN(C)CC1)c1sccc1CO2.Cl [Compound 171, Methyl[4-(1-methylpiperidin-4-ylidene)-4,10-dihydro-9-oxa-3-thiabenzo[f]azulen-6-ylsulfanyl]acetate hydrochloride] | 0.073 mg/kg | 4.16 nM | 29.6 mg/kg | 405.5
CN1CCC(=C2c3cc(SCC(=O)O)ccc3OCc3ccsc32)CC1 [Compound 172, [4-(1-Methylpiperidin-4-ylidene)-4,10-dihydro-9-oxa-3-thiabenzo[f]azulen-6-ylsulfanyl]acetic acid] | 0.117 mg/kg | 22.2 nM | 28 mg/kg | 239.3
CCOC(=O)CCN1CCC(=C2c3cc(CC(=O)OC)ccc3OCc3ccsc32)CC1.Cl [Compound 173, Ethyl 3-[4-(6-methoxycarbonylmethyl-10H-9-oxa-3-thiabenzo[f]azulen-4-ylidene)piperidin-1-yl]propionate hydrochloride] | 1.43 mg/kg | 1.26 nM | 87.1 mg/kg | 60.9
COC(=O)Cc1ccc2c(c1)C(=C1CCN(CCNS(C)(=O)=O)CC1)c1sccc1CO2.Cl [Compound 177, Methyl {4-[1-(2-methanesulfonylaminoethyl)piperidin-4-ylidene]-4,10-dihydro-9-oxa-3-thiabenzo[f]azulen-6-yl}acetate hydrochloride] | 0.302 mg/kg | 7.12 nM | 125 mg/kg | 412.6
COC(=O)Cc1ccc2c(c1)C(=C1CCN(CCC(C)=O)CC1)c1sccc1CO2.Cl [Compound 191, Methyl {4-[1-(3-oxobutyl)piperidin-4-ylidene]-4,10-dihydro-9-oxa-3-thiabenzo[f]azulen-6-yl}acetate hydrochloride] | 0.597 mg/kg | 4.72 nM | 79.2 mg/kg | 132.7
COC(=O)CSc1ccc2c(c1)C(=C1CCNCC1)c1sccc1CO2.Cl [Compound 197, Methyl (4-piperidin-4-ylidene-4,10-dihydro-9-oxa-3-thiabenzo[f]azulen-6-ylsulfanyl)acetate hydrochloride] | 0.19 mg/kg | 80.9 nM | > 200 mg/kg | >1052.6
COC(=O)Cc1ccc2c(c1)C(=C1CCN(CCCSC)CC1)c1sccc1CO2.Cl [Compound 198, Methyl {4-[1-(3-methylsulfanylpropyl)piperidin-4-ylidene]-4,10-dihydro-9-oxa-3-thiabenzo[f]azulen-6-yl}acetate hydrochloride] | ~0.3 mg/kg | 0.59 nM | 22.1 mg/kg | 73.7
